Holding throughout (details): incubation time: 72 h
For one test, the system named is MDA-MB-453. Briefly: drug sensitivity score (DSS), CellTiter-Glo (DSS (AUC-based score)); higher = stronger drug effect (viability inhibition or cytotoxicity); extreme values may be limits of the assay. In a few lines: (§1)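 Plates with 384 wells held compound at 5 concentrations in 10-fold steps over a 10,000-fold range specific to each compound. Breast cancer cell lines were added in 20 µl suspension and incubated 72 h, then read for CellTox Green and CellTiter-Glo signals, with each plate normalised to 0.1 % DMSO and a positive kill control. The drug sensitivity score is based on the area under the fitted dose-response curve.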

The subject of test [1] is SK-BR-3. The test is described as above. In a few lines: as §1
For test [2], the system named is HCC1937. The description is as above. In short, it runs like this:
as §1

Test [3] has as its system HCC1143. Described as above. In short, it runs like this: as §1
Test [4] relates to MFM-223. The description is as above. In short, it runs like this:
as §1

Test [5] concerns CAL-85-1. Described as above. In a few lines: as §1
Another test concerns CAL-148. The test is described as above. In a few lines: as §1
Test [6] deals with BT-549. The description is as above. In short, it runs like this: as §1
Another test concerns BT-474. The test is described as above. In a few lines: as §1
Test [7] concerns MDA-MB-436. Described as above. In a few lines: as §1
The test system of test [8] is DU-4475. The description is as above. In short, it runs like this:
as §1

Test [9] deals with MDA-MB-231. Described as above. In short, it runs like this: as §1
Test [10] deals with CAL-120. Described as above. In short, it runs like this: as §1
Another test concerns MCF-10A. The description is as above. In short, it runs like this:
as §1

Test [11] relates to CAL-51. The test is described as above. In a few lines: as §1
The test system of the next test is HCC1599. The test is described as above. In short, it runs like this:
as §1

Test [12] deals with SK-BR-3. As to the kind of experiment: normalised viability (% of control), CellTiter-Blue; higher = more viable cells (about 100 = DMSO control). In short, it runs like this: (§2)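 Seeded at 20 µl suspension per well onto compound-loaded 384-well plates, breast cancer cell lines were incubated 72 h. CellTiter-Blue fluorescence at 560/590 nm was then read, with each plate normalised to vehicle (100) and a positive kill control (0). Normalised viability is reported at a single listed concentration of the series.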
(In general: The colour change of resazurin is a common sign of viable cells or microbes.)

Test [13] concerns HCC1937. Described as above. In a few lines:
as §2

The subject of test [14] is HCC1143. The description is as above. In short, it runs like this: as §2
For test [15], the system named is MFM-223. The test is described as above. In short, it runs like this: as §2
Test [16] deals with CAL-85-1. Described as above. In a few lines:
as §2

The next test concerns Hs578T. The description is as above. In short, it runs like this: as §2
Test [17] concerns BT-549. The test is described as above. In short, it runs like this:
as §2

Test [18] relates to MDA-MB-436. Described as above. In a few lines: as §2
The subject of test [19] is DU-4475. Described as above. In a few lines: as §2
Test [20] concerns MDA-MB-231. The test is described as above. In short, it runs like this: as §2
The subject of test [21] is CAL-120. The test is described as above. In short, it runs like this:
as §2

Test [22] relates to CAL-51. The description is as above. In short, it runs like this:
as §2

The results in this text go back to the supplement of paper PMC4862054.

Consider `Nc1ncnc2c1c(COc1cccc(Cl)c1)nn2C1CCOCC1`, for which the drug sensitivity score in the test with MDA-MB-453, in the test on SK-BR-3 [1], in the test with HCC1937 [2], with HCC1143 [3], in the test with MFM-223 [4] and in the test with CAL-85-1 [5] was 0 in each case. Further, the drug sensitivity score in the test on CAL-148 came out at 0; in the test on BT-549 [6] it was 0.519; in the test on BT-474, 0; in the test with MDA-MB-436 [7] it was 0; in the test with DU-4475 [8], 0; with MDA-MB-231 [9], 0. The drug sensitivity score in the test with CAL-120 [10], in the test on MCF-10A, with CAL-51 [11] and in the test on HCC1599 was 0 each time.

With `COc1ccc(-c2ccc3c(N4CCOC[C@@H]4C)nc(N4CCOC[C@@H]4C)nc3n2)cc1CO` [AZD8055], the drug sensitivity score worked out at 22.2 in the test with MDA-MB-453; 30.3 with SK-BR-3 [1]; 14.9 in the test with HCC1937 [2]; 20.2 in the test on HCC1143 [3]; 23.8 in the test on MFM-223 [4]; 22.2 in the test on CAL-85-1 [5]. Further, the drug sensitivity score with CAL-148 is 22.8; in the test on BT-549 [6], 23.9; in the test on BT-474 it was 13.7; with MDA-MB-436 [7] it was 18.9; with DU-4475 [8], 16.5; in the test on MDA-MB-231 [9], 16.8. The drug sensitivity score in the test on CAL-120 [10] was found to be 23.8; in the test with MCF-10A, 19.3; with CAL-51 [11], 23.4; in the test with HCC1599, 5.62. Further, the normalised viability amounted to 13% in the test with SK-BR-3 [12] (1000 nM); 32.6% in the test with HCC1937 [13] (1000 nM); 32.5% with HCC1143 [14] (1000 nM); 18% in the test on MFM-223 [15] (1000 nM); 56.9% with CAL-85-1 [16] (30 nM); 23.7% in the test on Hs578T (1000 nM). Besides, the normalised viability was 18.7% in the test with BT-549 [17] (1000 nM); 32.5% with MDA-MB-436 [18] (1000 nM); 75.8% with DU-4475 [19] (30 nM); 23.9% with MDA-MB-231 [20] (1000 nM); 13.9% in the test on CAL-120 [21] (1000 nM); 47.5% in the test on CAL-51 [22] (30 nM).

Regarding `C[C@]12CC[C@H](O)CC1=CC[C@@H]1[C@@H]2CC[C@]2(C)C(c3cccnc3)=CC[C@@H]12` [Abiraterone], the drug sensitivity score in the test with MDA-MB-453, with SK-BR-3 [1], in the test with HCC1937 [2], with HCC1143 [3], with MFM-223 [4] and in the test on CAL-85-1 [5] was 0 throughout. The drug sensitivity score in the test on CAL-148, in the test on BT-549 [6], in the test with BT-474, in the test on MDA-MB-436 [7], in the test on DU-4475 [8] and in the test on MDA-MB-231 [9] was 0 each time. For the same compound, the drug sensitivity score in the test on CAL-120 [10] is 0; in the test with MCF-10A, 0; with CAL-51 [11], 3.91; in the test with HCC1599 it was 0. Further, the normalised viability with SK-BR-3 [12] (500 nM) came out at 101%; in the test on HCC1937 [13] (500 nM), 83%; with HCC1143 [14] (500 nM), 80.2%; in the test with MFM-223 [15] (500 nM) it was 96.6%; with CAL-85-1 [16] (15 nM) it was 80.5%; in the test on Hs578T (500 nM) it was 116%. Also, the normalised viability with BT-549 [17] (500 nM) worked out at 111%; in the test with MDA-MB-436 [18] (500 nM), 104%; with DU-4475 [19] (15 nM) it was 80.8%; in the test on MDA-MB-231 [20] (500 nM) it was 106%; with CAL-120 [21] (500 nM), 81.4%; in the test with CAL-51 [22] (15 nM) it was 107%.

In the case of `CN(C)CCN1C(=O)c2cccc3cc(N)cc(c23)C1=O` [Amonafide], the drug sensitivity score in the test on MDA-MB-453 worked out at 0; with SK-BR-3 [1], 3.61; in the test on HCC1937 [2], 2.35; in the test with HCC1143 [3] it was 1.61; in the test with MFM-223 [4], 0.47; with CAL-85-1 [5] it was 2.16. Further, the drug sensitivity score in the test with CAL-148 worked out at 4.44; in the test with BT-549 [6] it was 2.93; in the test with BT-474, 5.06; in the test on MDA-MB-436 [7], 2.32; with DU-4475 [8], 5.38; with MDA-MB-231 [9], 3.06. For the same compound, the drug sensitivity score is 3.03 in the test on CAL-120 [10], 2.36 in the test with MCF-10A, 2.87 with CAL-51 [11] and 0.856 in the test on HCC1599. Further, the normalised viability in the test with SK-BR-3 [12] (1000 nM) turned out to be 98.7%; in the test with HCC1937 [13] (1000 nM), 69.2%; in the test with HCC1143 [14] (1000 nM), 86.3%; in the test on MFM-223 [15] (1000 nM), 99.3%; in the test on CAL-85-1 [16] (30 nM) it was 79.8%; with Hs578T (1000 nM) it was 115%. Besides, the normalised viability in the test with BT-549 [17] (1000 nM) came to 102%; with MDA-MB-436 [18] (1000 nM), 95.7%; in the test on DU-4475 [19] (30 nM), 83.2%; in the test on MDA-MB-231 [20] (1000 nM) it was 67.8%; with CAL-120 [21] (1000 nM), 78.7%; in the test with CAL-51 [22] (30 nM), 102%.

`CC(C)(C#N)c1cc(Cn2cncn2)cc(C(C)(C)C#N)c1` [Anastrozole]: the drug sensitivity score with MDA-MB-453, with SK-BR-3 [1], in the test with HCC1937 [2], in the test with HCC1143 [3], in the test on MFM-223 [4] and in the test with CAL-85-1 [5] was 0 each time. Also, the drug sensitivity score with CAL-148, with BT-549 [6], with BT-474, in the test on MDA-MB-436 [7], with DU-4475 [8] and in the test with MDA-MB-231 [9] was 0 throughout. Moreover, the drug sensitivity score in the test with CAL-120 [10], in the test on MCF-10A, in the test on CAL-51 [11] and in the test with HCC1599 was 0 in each case. The normalised viability is 98.7% with SK-BR-3 [12] (1000 nM); 95.4% in the test with HCC1937 [13] (1000 nM); 83.5% with HCC1143 [14] (1000 nM); 90.4% in the test with MFM-223 [15] (1000 nM); 86.5% in the test with CAL-85-1 [16] (30 nM); 95.7% in the test with Hs578T (1000 nM). Further, the normalised viability in the test on BT-549 [17] (1000 nM) stood at 99.1%; in the test on MDA-MB-436 [18] (1000 nM), 83.6%; in the test on DU-4475 [19] (30 nM), 94.2%; with MDA-MB-231 [20] (1000 nM), 80.4%; in the test with CAL-120 [21] (1000 nM), 89.5%; in the test with CAL-51 [22] (30 nM), 106%.

Turning to `CC(C)c1c(C(=O)Nc2ccccc2)c(-c2ccccc2)c(-c2ccc(F)cc2)n1CC[C@@H](O)C[C@@H](O)CC(=O)O` [Atorvastatin], the drug sensitivity score with MDA-MB-453 was 0.00416; in the test with SK-BR-3 [1], 0; in the test with HCC1937 [2], 1; with HCC1143 [3], 1.92; with MFM-223 [4] it was 0; in the test with CAL-85-1 [5], 3.85. Further, the drug sensitivity score with CAL-148 is 0; with BT-549 [6], 0; with BT-474, 8.43; in the test on MDA-MB-436 [7], 0; with DU-4475 [8], 0; in the test on MDA-MB-231 [9] it was 10.1. The drug sensitivity score in the test on CAL-120 [10] is 4.42; in the test with MCF-10A, 7.2; in the test on CAL-51 [11], 6.03; in the test on HCC1599, 0.
